What was measured:
EAAT2 = EAAT2 (Homo sapiens, UniProt P43004); experiment: Inhibition of [14C]-glutamic acid uptake by EAAT2 expressed in MDCK or COS-1 cells; type: cell-based; design: expressed in transfected cells; conditions: glutamate transporter, subtype not given
Experimental: In accordance with a known method (Shimamoto, K. et al., Mol. Pharmacol. 53, 195-201, 1998; Bioorg. Med. Chem. Lett. 10, 2407-2410, 2000), the inhibitory activity was assayed as the ability to inhibit the uptake of [^14C]-glutamic acid by human EAAT2 and EAAT3 stably expressed in MDCK (Madin-Darby canine kidney) cells or transiently expressed in COS-1 cells. The glutamate uptake activity was assayed by incubating a mixture of 1 μM of L-[^14C]-glutamic acid with a sample compound at a predetermined concentration for 12 minutes, lysing the cells and then measuring the radioactivity incorporated into the cells with a liquid scintillator. The amount of uptake was expressed in percentage by referring the amount of uptake in the absence of a test compound (i.e., the buffer alone) as 100% and referring the amount of uptake in a sodium-free solution as 0%.

[1] = Biodistribution of radioactivity after intravenous injection in mice; conditions: mean ± S.D.
[2] = Octanol-water partition coefficient (Log P); type: physicochemical; conditions: octanol/phosphate buffer, mean ± S.D.
Experimental: Equal amounts of octanol and a phosphate buffer were mixed together and [^125I]I-BzA-TBOA was added thereto. After repeatedly shaking for 1 minute and allowing to stand for 1 minute three times, the mixture was allowed to stand for 20 minutes. After repeating this procedure three times, it was centrifuged (1,000×g, 10 min, 4° C.) and the radioactivity of each layer was measured. Thus, the partition coefficient was calculated (Table 1).

[3] = 2 min after i.v. administration
[4] = 5 min after i.v. administration
[5] = 15 min after i.v. administration
[6] = 30 min after i.v. administration

Sequence of EAAT2 (P43004 whole entry): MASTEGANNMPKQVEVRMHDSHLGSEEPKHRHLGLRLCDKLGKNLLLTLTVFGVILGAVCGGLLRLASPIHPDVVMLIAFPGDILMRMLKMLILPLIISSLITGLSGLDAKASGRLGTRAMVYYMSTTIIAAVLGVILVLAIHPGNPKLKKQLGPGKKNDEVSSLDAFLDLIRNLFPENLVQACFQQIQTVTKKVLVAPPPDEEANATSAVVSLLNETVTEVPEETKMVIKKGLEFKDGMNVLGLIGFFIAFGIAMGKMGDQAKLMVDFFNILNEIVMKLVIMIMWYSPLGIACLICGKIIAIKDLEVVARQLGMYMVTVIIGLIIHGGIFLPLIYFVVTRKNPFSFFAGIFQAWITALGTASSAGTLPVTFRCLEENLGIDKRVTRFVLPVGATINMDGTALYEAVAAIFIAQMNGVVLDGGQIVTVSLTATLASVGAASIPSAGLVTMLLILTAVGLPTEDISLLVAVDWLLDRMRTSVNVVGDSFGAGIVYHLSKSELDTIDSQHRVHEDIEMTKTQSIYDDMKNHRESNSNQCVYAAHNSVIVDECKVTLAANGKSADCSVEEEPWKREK

## N[C@H](C(=O)O)[C@H](OCc1cccc(NC(=O)c2ccc(F)cc2)c1)C(=O)O [F-BzA-TBOA]
EAAT2
  IC50 for glutamate transporter (in words): several ten nM order

## N[C@H](C(=O)O)[C@H](OCc1cccc(NC(=O)c2ccc([125I])cc2)c1)C(=O)O [[^125I]I-BzA-TBOA, (2S,3S)-3-[3-(4-[^125I]iodobenzoylamino)benzyloxy]aspartic acid]
[1]; [3]
  Radioactivity in Blood: 2.29 ± 0.23 percentage of injection dose per gram of each tissue
  Radioactivity in Brain: 0.21 ± 0.09 percentage of injection dose per gram of each tissue
  Radioactivity in Heart: 0.93 ± 0.06 percentage of injection dose per gram of each tissue
  Radioactivity in Intestine: 1.76 ± 0.15 percentage of injection dose per gram of each tissue
  Radioactivity in Kidney: 15.17 ± 2.34 percentage of injection dose per gram of each tissue
  Radioactivity in Liver: 28.71 ± 1.97 percentage of injection dose per gram of each tissue
  Radioactivity in Lung: 3.11 ± 0.22 percentage of injection dose per gram of each tissue
  Radioactivity in Pancreas: 2.10 ± 0.24 percentage of injection dose per gram of each tissue
  Radioactivity in Spleen: 1.11 ± 0.12 percentage of injection dose per gram of each tissue
  Radioactivity in Stomach: 1.12 ± 0.20 percentage of injection dose per gram of each tissue
[1]; [4]
  Radioactivity in Blood: 1.58 ± 0.25 percentage of injection dose per gram of each tissue
  Radioactivity in Brain: 0.19 ± 0.18 percentage of injection dose per gram of each tissue
  Radioactivity in Heart: 0.64 ± 0.13 percentage of injection dose per gram of each tissue
  Radioactivity in Intestine: 4.51 ± 1.36 percentage of injection dose per gram of each tissue
  Radioactivity in Kidney: 16.02 ± 0.57 percentage of injection dose per gram of each tissue
  Radioactivity in Liver: 22.52 ± 4.43 percentage of injection dose per gram of each tissue
  Radioactivity in Lung: 2.44 ± 0.59 percentage of injection dose per gram of each tissue
  Radioactivity in Pancreas: 2.13 ± 0.26 percentage of injection dose per gram of each tissue
  Radioactivity in Spleen: 0.65 ± 0.12 percentage of injection dose per gram of each tissue
  Radioactivity in Stomach: 0.78 ± 0.22 percentage of injection dose per gram of each tissue
[1]; [5]
  Radioactivity in Blood: 0.67 ± 0.19 percentage of injection dose per gram of each tissue
  Radioactivity in Brain: 0.06 ± 0.09 percentage of injection dose per gram of each tissue
  Radioactivity in Heart: 0.33 ± 0.04 percentage of injection dose per gram of each tissue
  Radioactivity in Intestine: 12.28 ± 0.72 percentage of injection dose per gram of each tissue
  Radioactivity in Kidney: 14.47 ± 2.59 percentage of injection dose per gram of each tissue
  Radioactivity in Liver: 11.11 ± 0.24 percentage of injection dose per gram of each tissue
  Radioactivity in Lung: 1.39 ± 0.12 percentage of injection dose per gram of each tissue
  Radioactivity in Pancreas: 0.94 ± 0.02 percentage of injection dose per gram of each tissue
  Radioactivity in Spleen: 0.30 ± 0.04 percentage of injection dose per gram of each tissue
  Radioactivity in Stomach: 0.88 ± 0.13 percentage of injection dose per gram of each tissue
[1]; [6]
  Radioactivity in Blood: 0.40 ± 0.12 percentage of injection dose per gram of each tissue
  Radioactivity in Brain: 0.10 ± 0.13 percentage of injection dose per gram of each tissue
  Radioactivity in Heart: 0.19 ± 0.14 percentage of injection dose per gram of each tissue
  Radioactivity in Intestine: 15.91 ± 1.65 percentage of injection dose per gram of each tissue
  Radioactivity in Kidney: 8.29 ± 2.63 percentage of injection dose per gram of each tissue
  Radioactivity in Liver: 4.96 ± 1.65 percentage of injection dose per gram of each tissue
  Radioactivity in Lung: 0.64 ± 0.42 percentage of injection dose per gram of each tissue
  Radioactivity in Pancreas: 0.33 ± 0.23 percentage of injection dose per gram of each tissue
  Radioactivity in Spleen: 0.11 ± 0.07 percentage of injection dose per gram of each tissue
  Radioactivity in Stomach: 0.58 ± 0.40 percentage of injection dose per gram of each tissue
[1]; 1 hr after i.v. administration
  Radioactivity in Blood: 0.16 ± 0.04 percentage of injection dose per gram of each tissue
  Radioactivity in Brain: 0.01 ± 0.02 percentage of injection dose per gram of each tissue
  Radioactivity in Heart: 0.04 ± 0.02 percentage of injection dose per gram of each tissue
  Radioactivity in Intestine: 20.05 ± 6.29 percentage of injection dose per gram of each tissue
  Radioactivity in Kidney: 2.08 ± 0.15 percentage of injection dose per gram of each tissue
  Radioactivity in Liver: 1.95 ± 0.46 percentage of injection dose per gram of each tissue
  Radioactivity in Lung: 0.26 ± 0.06 percentage of injection dose per gram of each tissue
  Radioactivity in Pancreas: 0.10 ± 0.06 percentage of injection dose per gram of each tissue
  Radioactivity in Spleen: 0.03 ± 0.04 percentage of injection dose per gram of each tissue
  Radioactivity in Stomach: 0.74 ± 0.80 percentage of injection dose per gram of each tissue
[1]; 2 hr after i.v. administration
  Radioactivity in Blood: 0.07 ± 0.01 percentage of injection dose per gram of each tissue
  Radioactivity in Brain: 0.18 ± 0.23 percentage of injection dose per gram of each tissue
  Radioactivity in Heart: 0.00 ± 0.00 percentage of injection dose per gram of each tissue
  Radioactivity in Intestine: 23.69 ± 1.58 percentage of injection dose per gram of each tissue
  Radioactivity in Kidney: 1.03 ± 0.23 percentage of injection dose per gram of each tissue
  Radioactivity in Liver: 1.50 ± 0.43 percentage of injection dose per gram of each tissue
  Radioactivity in Lung: 0.10 ± 0.02 percentage of injection dose per gram of each tissue
  Radioactivity in Pancreas: 0.06 ± 0.04 percentage of injection dose per gram of each tissue
  Radioactivity in Spleen: 0.03 ± 0.03 percentage of injection dose per gram of each tissue
  Radioactivity in Stomach: 0.48 ± 0.19 percentage of injection dose per gram of each tissue
[2]; PH 3.0
  Octanol/water partition coefficient (Log P): 0.641 ± 0.006
[2]; PH 7.0
  Octanol/water partition coefficient (Log P): −0.821 ± 0.003
[2]; PH 7.4
  Octanol/water partition coefficient (Log P): −0.849 ± 0.006
[2]; PH 8.0
  Octanol/water partition coefficient (Log P): −0.936 ± 0.007

Reference: patent publication US8097654B2, “Radiolabeled 3-[3-(benzoyl-amido)benzyloxy]aspartic acid derivative and method of producing the same” (Suntory Holdings Limited, priority 2004, dated 2012)
